Data reported in US11230542B2, “Inhibitors of integrated stress response pathway” (Praxis Biotech LLC, priority 2017, dated 2022).

Assays:
Assay type in all cases: in vivo, mouse
[1] = test system: 19-month old male C57Bl/6J mice; assay: Learning memory in aged mice (8-arm radial water maze, hippocampal ATF4); details: 5 mg/kg intraperitoneally, versus vehicle
Text: Wild type 19-month old male C57Bl/6J mice were used in an 8-arm radial water maze (RAWM) to measure the hippocampal-mediated learning memory. The maze involved a pool 118.5 cm in diameter and 25 cm high with 8 arms, each 41 cm in length, and an escape platform that could be moved. The pool was filled with water that was rendered opaque by adding white paint (Crayola, 54-2128-053). The escape platform remains hidden during the experiment. Visual cues were placed around the room such that they were visible to animals exploring the maze. […]
Behavioral tests were recorded and scored using a video tracking and analysis setup (Ethovision XT 8.5, Noldus Information Technology). The program automatically analyzed the number of incorrect arm entries (termed number of errors) made per trial. […]
At the end of the behavioral test, animals were sacrificed and the hippocampi were extracted and immediately frozen in liquid nitrogen and then stored at −80° C. […] Protein concentration in supernatants was determined using BCA Protein Assay Kit (Pierce). […]
ATF4 (11815) antibody (Cell Signaling Technologies) and β-actin (Sigma-Aldrich) antibodies were used as primary antibodies. […] Quantification of protein bands was done by densitometry using ImageJ software.

[2] = test system: CT26 colon carcinoma cell line; assay: Tumor growth and density model; details: 10 mg/kg daily oral gavage for 13 days from day 6 post tumor-cell injection
Procedure: (§1) Wild type six-weeks-old male Balb/c mice obtained from the vivarium Fundacion Ciencia & Vida Chile (Santiago, Chile) were used. Mice were housed in independent plastic cages in a room maintained at 25° C. with a 12-h:12-h light:dark cycle.
1×10^6 CT26 colon carcinoma cell line (ATCC #CRL-2638, ATCC Manassas, Va.) were injected subcutaneously in the right lower flank of each animal as described (Nat Commun. 2012 Jun. 12; 3:896). Non-injected animals were used as controls. At day 6 post tumor-cell injection, mean tumor volume was about 100 mm^3, animals were weighed and randomized into two groups and treated with 10 mg/kg of compound 3 formulated in 50% Polyethylene glycol (PEG-400) in distilled water, or with vehicle (50% PEG-400 in distilled water) by daily oral gavage for 13 days.
At the end of the study, tumors were measured with digital caliper and tumors volumes, expressed in mm^3, were calculated with the following formula: Tumor volume (mm^3)=(a×b^2)/2 where “a” is the largest perpendicular diameter and “b” is the smallest diameter. Animals were then sacrificed and tumors were extracted and weighed. The volumes and weight of the tumors of each animal are shown in FIGS. 12A and 12B respectively. Bars represent mean±SEM. Statistical analyses were performed using GraphPad Prism software and significant difference was assessed by t test (*<0.05).

[3] = test system: Balb/c mice injected with CT26 colon carcinoma cell line; assay: Cachexia-induced muscle atrophy (CT26 tumor cells); details: 10 mg/kg daily oral gavage for 13 days
Procedure: as §1
1×10^6 CT26 colon carcinoma cell line (ATCC #CRL-2638, ATCC Manassas, Va.) were injected subcutaneously in the right lower flank of each animal for induction of cachexia-induced muscle atrophy as described (Nat Commun. 2012 Jun. 12; 3:896). Non-injected animals were used as controls. At day 6 post tumor-cell injection, animals were randomized into two groups and treated with 10 mg/kg of compound 3 formulated in 50% Polyethylene glycol (PEG-400) in distilled water, or with vehicle (50% PEG-400 in distilled water) by daily oral gavage for 13 days.
For in vivo measurements of protein synthesis, 30 min before the study ends, animals were injected intraperitoneally with puromycin (Sigma-Aldrich, P8833) at 0.04 μmol/g body weight in a volume of 200 μL of PBS. […]
Upon collection, muscles were immediately frozen in liquid nitrogen and then stored at −80° C. […] Protein concentration in supernatants was determined using BCA Protein Assay Kit (Pierce). […]
Puromycin (12D10) (Merck Millipore) and β-actin (Sigma-Aldrich) antibodies were used as primary antibodies. […] Quantification of protein bands was done by densitometry using ImageJ software.

O=C(COc1ccc(Cl)cc1)N[C@H]1CC[C@H](NC[C@@H](O)COc2ccc(Cl)cc2)CC1 (single isomer, unassigned) [Compound 3, (+)-2-(4-chlorophenoxy)-N-(4-((3-(4-chlorophenoxy)-2-hydroxypropyl)amino)cyclohexyl)acetamide]
ATF4 expression normalized to β-actin in hippocampi [1]: lower levels of ATF4 expression compared with vehicle-treated animals | RAWM task performance (learning memory) [1]: performed better than vehicle-treated animals | tumor density (weight/volume ratio) [2]: significantly reduce the tumor density | tumor volume [2]: does not reduce tumor volume | muscle weight (gastrocnemius, quadriceps, tibialis anterior) [3]: prevented the CT26-induced muscle weight loss | protein synthesis in muscle ([3]; quadriceps and tibialis anterior, versus vehicle): significantly increase protein synthesis
